According to patent US20090247752A1, “GATIFLOXACIN-CONTAINING AQUEOUS LIQUID PREPARATION, ITS PRODUCTION AND METHOD FOR SUPPRESSING FORMATION OF PRECIPITATE DURING STORAGE AT LOWER TEMPERATURE AND AT THE TIME OF FREEZING AND THAWING OF THE AQUEOUS LIQUID PREPARATION” (Kyorin Pharmaceutical Co., Ltd., priority 2008, published 2009):
≈ marks a conversion by molar mass, not a printed value.

Assay: Solubility test of Gatifloxacin (Test Example 1)
Assay type: physicochemical
Settings: for solubility thermodynamic at 3 h: pH 6.5, aqueous buffer, thermodynamic from solid, pH 6.5, stirred 3 hours at room temperature
Description: According to the formulations shown in Table 1, a saturated solution of Gatifloxacin containing the given amount of each additive was prepared. The solution containing sodium dihydrogen phosphate, boric acid or malonic acid was adjusted to a pH of 6.5 with hydrochloric acid and sodium hydroxide, and then stirred for 3 hours at room temperature. The solution containing nicotinamide was adjusted to 6.0 with hydrochloric acid and sodium hydroxide, filled in glass ampoules and shaken for 2 days at room temperature. As a control, a saturated solution of Gatifloxacin containing no additive was prepared, its pH was adjusted to 6.5 with hydrochloric acid and sodium hydroxide, and stirred for 3 hours at room temperature. Each solution was filtered through a membrane filter (0.45 μm), and the filtrate (1 mL) was precisely measured and a diluent was added thereto to precisely make its volume up to 50 mL. The resultant solution (3 mL) was precisely measured, an internal standard solution (3 mL) was precisely added thereto, and a diluent was added thereto to precisely make its volume up to 20 mL to prepare a sample solution. The concentration of Gatifloxacin was measured in the sample solution (20 μL) under the following HPLC conditions. The solubility was converted in terms of Gatifloxacin 3/2 hydrate.
Detector: Ultraviolet absorptiometer (measurement wavelength: 280 nm) Column: Inertsil ODS-2 […], 4.6 mmφ×150 mm, GL Sciences Inc. Column temperature: 40° C. Mobile phase: acetonitrile (180 mL), water (810 mL) and triethylamine (10 mL) were mixed, and the pH was adjusted to 4.5 with phosphoric acid. Flow rate: 0.8 mL/min Injection amount: 20 μL Internal standard solution: a mobile phase solution of methyl p-aminobenzoate (1→10000) Diluent: Mixture of acetonitrile, water and phosphoric acid (200:800:0.8)

COc1c(N2CCNC(C)C2)c(F)cc2c(=O)c(C(=O)O)cn(C3CC3)c12 (racemic) [Gatifloxacin, (±)-1-cyclopropyl-6-fluoro-1,4-dihydro-8-methoxy-7-(3-methyl-1-piperazinyl)-4-oxo-3-quinolinecarboxylic acid]
Solubility of Gatifloxacin (nicotinamide 1 w/v %, pH 6.0, shaken 2 days at room temperature, in terms of 3/2 hydrate): 1.41 w/v % | solubility thermodynamic at 3 h (sodium dihydrogen phosphate dihydrate 0.5 w/v %, in terms of 3/2 hydrate): 7200 µg/mL (≈ 19.2 mM) | solubility thermodynamic at 3 h (sodium dihydrogen phosphate dihydrate 1 w/v %, in terms of 3/2 hydrate): 9100 µg/mL (≈ 24.2 mM) | solubility thermodynamic at 3 h (saturated solution containing boric acid 0.5 w/v %, boric acid 0.5 w/v %, in terms of 3/2 hydrate): 5800 µg/mL (≈ 15.5 mM) | solubility thermodynamic at 3 h (saturated solution containing boric acid 1 w/v %, boric acid 1 w/v %, in terms of 3/2 hydrate): ~6000 µg/mL (≈ 16 mM) | solubility thermodynamic at 3 h (saturated solution containing malonic acid 0.5 w/v %, malonic acid 0.5 w/v %, in terms of 3/2 hydrate): 9600 µg/mL (≈ 25.6 mM) | solubility thermodynamic at 3 h (saturated solution containing malonic acid 1 w/v %, malonic acid 1 w/v %, in terms of 3/2 hydrate): 9300 µg/mL (≈ 24.8 mM) | solubility thermodynamic at 3 h (saturated solution containing no additive (control), no additive (control), in terms of Gatifloxacin 3/2 hydrate): 5300 µg/mL (≈ 14.1 mM)
